From PubChem BioAssay AID248 (DTP/NCI, 2004)
Where “and” joins values, the source holds several entries; their conditions need not be identical. Equal values may be shown once. Inconclusive results and toxic doses are left out. No stated cut-off is given here; in the data, active means T/C of 150% or more; inactive means T/C below 125%.

Tested on: L1210 leukemia ip in BDF1 mice, survival T/C
Test: NCI In Vivo Anticancer Drug Screen. Data for tumor model L1210 Leukemia (intraperitoneal) in B6D2F1 (BDF1) mice
Details: endpoint: mean survival time, higher = longer survival
How it was run: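 Each compound was tested against a transplantable tumor grown in mice. The endpoint was survival, with treated animals benchmarked against vehicle controls as a simple ratio.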

[1] = dose: 100.0 mg/kg/injection, schedule: Q01DX009 (ip), vehicle: Klucel (hydroxypropylcellulose) (HPC)
[2] = dose: 100.0 mg/kg/injection, schedule: Q04DX003 (ip), vehicle: Klucel (hydroxypropylcellulose) (HPC)
[3] = dose: 200.0 mg/kg/injection, schedule: Q01DX009 (ip), vehicle: Klucel (hydroxypropylcellulose) (HPC)
[4] = dose: 200.0 mg/kg/injection, schedule: Q04DX003 (ip), vehicle: Klucel (hydroxypropylcellulose) (HPC)
[5] = dose: 400.0 mg/kg/injection, schedule: Q01DX009 (ip), vehicle: Klucel (hydroxypropylcellulose) (HPC)
[6] = dose: 400.0 mg/kg/injection, schedule: Q04DX003 (ip), vehicle: Klucel (hydroxypropylcellulose) (HPC)
[7] = dose: 25.0 mg/kg/injection, schedule: Q04DX002 (ip), vehicle: Klucel (hydroxypropylcellulose) (HPC)
[8] = dose: 50.0 mg/kg/injection, schedule: Q04DX002 (ip), vehicle: Klucel (hydroxypropylcellulose) (HPC)
[9] = dose: 100.0 mg/kg/injection, schedule: Q04DX002 (ip), vehicle: Klucel (hydroxypropylcellulose) (HPC)
[10] = dose: 200.0 mg/kg/injection, schedule: Q04DX002 (ip), vehicle: Klucel (hydroxypropylcellulose) (HPC)
[11] = dose: 400.0 mg/kg/injection, schedule: Q04DX002 (ip), vehicle: Klucel (hydroxypropylcellulose) (HPC)
[12] = dose: 100.0 mg/kg/injection, schedule: Q01DX001 (ip), vehicle: other
[13] = dose: 200.0 mg/kg/injection, schedule: Q01DX001 (ip), vehicle: other
[14] = dose: 400.0 mg/kg/injection, schedule: Q01DX001 (ip), vehicle: other
[15] = dose: 100.0 mg/kg/injection, schedule: Q04DX002 (ip), vehicle: saline with Tween-80

Measured: T/C

Cc1cc(Cl)ccc1OCC(=O)Nc1cccc(C(F)(F)F)c1
inactive: dose: 100.0 mg/kg/injection, schedule: Q04DX002 (ip), vehicle: saline 103 % of control | dose: 200.0 mg/kg/injection, schedule: Q04DX002 (ip), vehicle: saline 100 % of control | dose: 400.0 mg/kg/injection, schedule: Q04DX002 (ip), vehicle: saline 92 % of control

O=C(Nc1ccc(C(=O)Nc2cccc(C3=NCCN3)c2)cc1)c1ccc(C2=NCCN2)cc1
inactive: dose: 1.88 mg/kg/injection, schedule: Q01DX Z (ip), vehicle: saline 89 % of control | dose: 3.75 mg/kg/injection, schedule: Q01DX Z (ip), vehicle: saline 104 % of control | dose: 7.5 mg/kg/injection, schedule: Q01DX Z (ip), vehicle: saline 102 % of control | dose: 15.0 mg/kg/injection, schedule: Q01DX Z (ip), vehicle: saline 124 % of control

CC(=O)OC(C)C(=O)C(Cl)(Cl)Cl (stereo not drawn)
inactive: [1] 100 % of control | [2] 96 % of control | [3] 98 % of control | [4] 103 % of control | [5] 91 % of control | [6] 101 % of control

N=C(N)c1ccccc1
inactive: dose: 100.0 mg/kg/injection, schedule: Q01DX Z (ip), vehicle: methylcellulose (MC) 94 % of control | dose: 150.0 mg/kg/injection, schedule: Q01DX Z (ip), vehicle: methylcellulose (MC) 96 % of control and 89 % of control

Nc1nc(O)c2[nH]c(N=Nc3ccc(-c4ccc(N=Nc5nc6nc(N)nc(O)c6[nH]5)cc4)cc3)nc2n1
inactive: [2] 98 % of control | [4] 93 % of control | [6] 88 % of control

NC(N)=NC1CCCC1
inactive: dose: 100.0 mg/kg/injection, schedule: Q04DX003 (ip), vehicle: saline 104 % of control

CCCCCCCCC(=O)NCc1cccc(OC)c1
inactive: [2] 95 % of control | [4] 95 % of control | [6] 105 % of control

CCOC(=O)c1ncc(Cl)cc1N
inactive: dose: 100.0 mg/kg/injection, schedule: Q01DX001 (ip), vehicle: Klucel (hydroxypropylcellulose) (HPC) 106 % of control | dose: 200.0 mg/kg/injection, schedule: Q01DX001 (ip), vehicle: Klucel (hydroxypropylcellulose) (HPC) 108 % of control

CCCCCCCCCCSCCSCCSCCCCCCCCCC
inactive: [2] 94 % of control

O=C(O)CCC1CCC(=O)NC1=O (stereo not drawn)
inactive: [7] 95 % of control | [8] 101 % of control | [9] 89 % of control | [10] 103 % of control | [11] 88 % of control

Cc1ccccc1-n1cccc1C(=O)O
inactive: [9] 89 % of control | [10] 96 % of control | [11] 86 % of control

Cc1nc(C)c(Br)s1
inactive: dose: 25.0 mg/kg/injection, schedule: Q01DX009 (ip), vehicle: saline with Tween-80 97 % of control | dose: 50.0 mg/kg/injection, schedule: Q01DX009 (ip), vehicle: saline with Tween-80 96 % of control | dose: 100.0 mg/kg/injection, schedule: Q01DX009 (ip), vehicle: saline with Tween-80 112 % of control | dose: 100.0 mg/kg/injection, schedule: Q04DX003 (ip), vehicle: saline with Tween-80 105 % of control | dose: 200.0 mg/kg/injection, schedule: Q04DX003 (ip), vehicle: saline with Tween-80 110 % of control

O=C1C=C(c2c(-c3ccccc3)[nH]c3ccccc23)C(=O)c2ccccc21
inactive: [12] 92 % of control | [13] 97 % of control

CCCCCCCCC[n+]1cccc(C(=O)c2ccccc2)c1
inactive: dose: 9.38 mg/kg/injection, schedule: Q01DX001 (ip), vehicle: saline 98 % of control | dose: 18.75 mg/kg/injection, schedule: Q01DX001 (ip), vehicle: saline 100 % of control | dose: 37.5 mg/kg/injection, schedule: Q01DX001 (ip), vehicle: saline 105 % of control

CCCCCCS(=O)(=O)c1n[nH]c(=O)[nH]c1=O
inactive: [12] 98 % of control | [13] 95 % of control | [14] 101 % of control

CC(C)(C)Nc1ccc(F)cc1
inactive: [9] 106 % of control | [10] 95 % of control

CCN(CC)S(=O)(=O)NC1C(=O)N(c2ccccc2)N(C)C1C (stereo not drawn)
inactive: [15] 104 % of control | dose: 200.0 mg/kg/injection, schedule: Q04DX002 (ip), vehicle: saline with Tween-80 101 % of control | dose: 400.0 mg/kg/injection, schedule: Q04DX002 (ip), vehicle: saline with Tween-80 104 % of control

CC(=O)Nc1cc2c(cc1[N+](=O)[O-])-c1ccc([N+](=O)[O-])cc1C2
inactive: [1] 95 % of control | [2] 93 % of control | [3] 89 % of control | [4] 91 % of control | [5] 94 % of control | [6] 94 % of control

Cc1[nH]c2ccc(N=CN(C)C)cc2c1C
inactive: [15] 94 % of control

CNC1C(=O)C2CCC(C2)C1c1ccccc1 (stereo not drawn)
inactive: dose: 100.0 mg/kg/injection, schedule: Q01DX001 (ip), vehicle: saline 108 % of control | dose: 200.0 mg/kg/injection, schedule: Q01DX001 (ip), vehicle: saline 100 % of control | dose: 400.0 mg/kg/injection, schedule: Q01DX001 (ip), vehicle: saline 96 % of control

C/C=C1\C(=O)O[C@@]23C=C[C@H]4C(C(=O)OC)=CO[C@@H](O[C@H]12)[C@H]43
inactive: dose: 5.0 mg/kg/injection, schedule: Q01DX001 (ip), vehicle: saline 103 % of control | dose: 10.0 mg/kg/injection, schedule: Q01DX001 (ip), vehicle: saline 103 % of control | dose: 20.0 mg/kg/injection, schedule: Q01DX001 (ip), vehicle: saline 106 % of control | dose: 40.0 mg/kg/injection, schedule: Q01DX001 (ip), vehicle: saline 103 % of control

Cc1ccc(S(=O)(=O)NNC(=O)c2cc(C)c(C)cc2NCC(O)C(O)C(O)CO)cc1 (stereo not drawn)
inactive: dose: 100.0 mg/kg/injection, schedule: Q01DX001 (ip), vehicle: carboxymethylcellulose (CMC) 93 % of control | dose: 200.0 mg/kg/injection, schedule: Q01DX001 (ip), vehicle: carboxymethylcellulose (CMC) 98 % of control | dose: 400.0 mg/kg/injection, schedule: Q01DX001 (ip), vehicle: carboxymethylcellulose (CMC) 89 % of control

N=C(N)SCc1ccc(Cl)cc1N
inactive: [7] 97 % of control | [8] 102 % of control | [9] 103 % of control

CCCCCCCCCCCCCCCCCC(=O)N/N=C/c1cc(C(C)(C)C)c(O)c(C(C)(C)C)c1
inactive: dose: 100.0 mg/kg/injection, schedule: Q01DX009 (ip), vehicle: other 90 % of control | dose: 200.0 mg/kg/injection, schedule: Q01DX009 (ip), vehicle: other 88 % of control | dose: 400.0 mg/kg/injection, schedule: Q01DX009 (ip), vehicle: other 96 % of control

Clc1ccc(Cl)c2c(Br)cncc12
inactive: [12] 98 % of control | [13] 98 % of control | [14] 93 % of control

O=C(Nc1cccc(Cl)c1Cl)Oc1ccc2ccccc2c1
inactive: [1] 100 % of control | [3] 105 % of control | [5] 103 % of control

O/N=C\CC/C=N\O
inactive: [2] 105 % of control | [4] 98 % of control | [6] 100 % of control
